Measured values reported in US20250177405A1, “METHODS OF TREATING NEUROLOGICAL AND CARDIOVASCULAR CONDITIONS” (ASTROCYTE PHARMACEUTICALS, INC., priority 2021, published 2025).
pKi: −log10 of the molar value.

Key:
A3R [1] = target: T1, A3R (Rattus norvegicus, UniProt P28647); assay: estimated brain receptor occupancy of R-PIA at A3R; format: in vivo; conditions: associated with beneficial ATP effects
T1 sequence (P28647 1-320): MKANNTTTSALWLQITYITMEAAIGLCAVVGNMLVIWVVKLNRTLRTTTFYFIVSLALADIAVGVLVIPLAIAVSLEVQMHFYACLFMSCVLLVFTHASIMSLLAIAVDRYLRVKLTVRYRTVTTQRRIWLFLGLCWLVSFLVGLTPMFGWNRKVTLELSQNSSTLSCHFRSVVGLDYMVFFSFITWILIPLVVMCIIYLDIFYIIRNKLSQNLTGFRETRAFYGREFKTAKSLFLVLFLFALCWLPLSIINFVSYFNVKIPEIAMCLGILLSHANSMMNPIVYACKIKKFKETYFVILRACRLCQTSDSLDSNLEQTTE
Source text: (§2) We therefore performed the same study using ^31P-ATP and measured the receptor engagement in the brain associated with the beneficial ATP effects.

[2] = test system: rodent model of cerebral ischemia; assay: reproduction of Roucher study: ATP decline during cerebral ischemia; format: in vivo, rat; conditions: dose of 0.02 mg/kg, rats
Source text: As part of the current study, we first reproduced the original Roucher results.
as §2

A3R [3] = target: T1, A3R; conditions: cited from earlier work
[4] = test system: reversible forebrain ischemia in the rat; conditions: cited from earlier work
A1R = target: T2, A1R (Rattus norvegicus, UniProt P25099); assay: estimated brain receptor occupancy of R-PIA at A1R; format: in vivo; conditions: associated with beneficial ATP effects
T2 construct: measured the receptor engagement in the brain associated with the beneficial ATP effects; from tissue; host or cells: brain of living rats (cerebral ischemia model)
T2 sequence (P25099 1-326): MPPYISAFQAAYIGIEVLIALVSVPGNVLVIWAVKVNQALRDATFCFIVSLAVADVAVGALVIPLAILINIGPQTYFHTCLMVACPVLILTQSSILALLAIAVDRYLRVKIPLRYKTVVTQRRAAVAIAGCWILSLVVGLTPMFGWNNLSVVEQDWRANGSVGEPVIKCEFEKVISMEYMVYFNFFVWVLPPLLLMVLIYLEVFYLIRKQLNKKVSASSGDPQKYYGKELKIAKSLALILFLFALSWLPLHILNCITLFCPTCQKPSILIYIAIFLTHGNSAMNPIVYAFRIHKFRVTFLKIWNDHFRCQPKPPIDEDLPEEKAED
Source text: as §2

[5] = brain tissue binding (free fraction); format: in vitro ADME, mouse; conditions: mouse brain tissue
Source text: (§1) Example 3 of U.S. Pat. No. 9,789,131, which is incorporated herein by reference, describes assays for determining the plasma and brain free fraction of certain compounds such as I-1. Compounds described herein may be evaluated using such assays or similar variants thereof.

[6] = plasma protein binding (free fraction); format: in vitro ADME; conditions: mouse
Source text: as §1

[7] = test system: traumatic brain injury (TBI) in mice; assay: mouse traumatic brain injury (TBI) model; conditions: in vivo
Procedure: Animals and traumatic brain injury (TBI): TBI is performed with a controlled closed skull injury model as described in Talley-Watts et al. 2012 (J. Neurotrauma 30, 55-66). Following the method described therein, a pneumatic impact device is used to generate a moderate TBI leaving the skull and dura matter intact. To achieve this, C57BL/6 mice are anesthetized with isoflurane (3% induction, 1% maintenance) in 100% oxygen. A body temperature of 37° C. is maintained using a temperature-controlled heated surgical table. A small midline incision is made on the scalp using aseptic surgical techniques. A 5 mm stainless steel disc is positioned on the skull and fixed using superglue on the right parietal bone between bregma and lamda over the somatosensory cortex. The mouse is then positioned on a stage directly under the pneumatic impact tip. […] Mice are placed in a Thermo-Intensive Care Unit (Braintree Scientific model FV-1; 37° C.; 27% O2) and monitored until fully awake and moving freely. […]
Western Blot Analysis for GFAP: At selected survival times, mice are anesthetized under isoflurane and sacrificed. […] The homogenate is transferred to a 2 mL tube and centrifuged at 1000 g for 10 minutes at 4° C. and the supernatant is collected and analyzed. Protein concentration is determined by the BCA assay using a 1:50 dilution. […]

estimated RO % for A3R (A3R [1]) [%] | estimated RO % for A1R (A1R) [%] | free (unbound) fraction in brain [5] | free (unbound) fraction in plasma [6] | SMILES | decline in ATP during ischemia [2] | pKi (A3R [3]) | intracellular pH ([4]; 30-min ischemia, reference group 6.30) | effect on cerebral metabolism before ischemia ([4]; before ischemia) | phosphocreatine, % of the control level ([4]; end of 30-min ischemia, reference group 27+/−9%) | ATP, % of the control level ([4]; end of 30-min ischemia, reference group 40+/−23%) | inorganic phosphate, % of the control level ([4]; end of 30-min ischemia, reference group 905+/−229%) | recovery of PCr, ATP, Pi, and pHi to control levels ([4]; recirculation, versus reference group) | efficacy in mouse TBI model [7]
1 | 16 | – | – | C[C@H](Cc1ccccc1)Nc1ncnc2c1ncn2[C@@H]1O[C@H](CO)[C@@H](O)[C@H]1O [Compound I-25, N^6-(L-2-Phenylisopropyl)adenosine] | partial reversal | 6.80 | 6.40+/−0.10 | no effect | 43+/−11% | 58+/−12% | 672+/−210% | faster recovery | –
– | – | 0.002 | 0.002 | CNC(=O)[C@H]1O[C@@H](n2cnc3c(NCc4cccc(I)c4)nc(Cl)nc32)[C@H](O)[C@@H]1O [Cl-IB-MECA, 2-Chloro-N^6-(3-iodobenzyl)-adenosine-5′-N-methyluronamide, reference compound] | – | – | – | – | – | – | – | – | weakly active
